Measured values as given in patent publication US6790540B2, “Organic electroluminescent element material and organic electroluminescent element” (Nippon Steel Chemical Co., Ltd., priority 2000, dated 2004).

Columns and labels:
[1] = Maximum PL wavelength in chloroform; format: physicochemical; conditions: in chloroform (Compound B: 0.1 mM, excitation 350 nm)
Method: Next, 5.0 g (0.016 mole) of Compound J, 2.12 g (0.016 mole) of zinc chloride and 4.74 g (0.047 mole) of triethylamine were suspended in 30 ml of ethanol and allowed to react at room temperature. After 3 hours, the separated yellow powder was filtered, washed with ethanol, and purified by column chromatography to give […] (90.0%) of Compound B as yellow crystals. The maximum PL wavelength of Compound B in chloroform was 509 nm (concentration, 0.1 mM; solvent, CHCl3; excitation, 350 nm).

[2] = Solubility (wt %) of compounds in chloroform and toluene; format: physicochemical; set-up: key: ◯: ∘, completely soluble; Δ, a slight amount remaining insoluble; X, a considerable amount remaining insoluble; conditions: for Solubility, Chloroform 0.1% soln. / Solubility, Toluene 0.1% soln.: 0.1% soln. (wt %); for Solubility, Chloroform 1% soln. / Solubility, Toluene 1% soln.: 1% soln. (wt %); for Solubility, Chloroform 5% soln. / Solubility, Toluene 5% soln.: 5% soln. (wt %); for Solubility, Chloroform 10% soln. / Solubility, Toluene 10% soln.: 10% soln. (wt %)
Text: The symbols in the table stand for the following: ∘, completely soluble; Δ, a slight amount remaining insoluble; X, a considerable amount remaining insoluble.

maximum PL wavelength [1]	Solubility, Chloroform 0.1% soln. [2]	Solubility, Chloroform 1% soln. [2]	Solubility, Chloroform 5% soln. [2]	Solubility, Chloroform 10% soln. [2]	Solubility, Toluene 0.1% soln. [2]	Solubility, Toluene 1% soln. [2]	Solubility, Toluene 5% soln. [2]	Solubility, Toluene 10% soln. [2]	Structure (SMILES)
509 nm	–	–	–	–	–	–	–	–	CCCCCCCCS(=O)(=O)[N-]c1cccc2cccnc12.CCCCCCCCS(=O)(=O)[N-]c1cccc2cccnc12.[Zn+2] [Compound B, zinc bis-8-(n-octylsulfonamido)quinolinate]
510 nm	◯	Δ	X	X	X	X	X	X	CCCCS(=O)(=O)[N-]c1cccc2cccnc12.CCCCS(=O)(=O)[N-]c1cccc2cccnc12.[Zn+2] [Compound N, Zinc bis-8-(n-butylsulfonamido)quinolinate]

Continued, compound first:

Structure (SMILES)	maximum PL wavelength [1]	Solubility, Chloroform 0.1% soln. [2]	Solubility, Chloroform 1% soln. [2]	Solubility, Chloroform 5% soln. [2]	Solubility, Chloroform 10% soln. [2]	Solubility, Toluene 0.1% soln. [2]	Solubility, Toluene 1% soln. [2]	Solubility, Toluene 5% soln. [2]	Solubility, Toluene 10% soln. [2]
CCCCCCCCS(=O)(=O)[N-]c1ccccc1-c1nc2ccccc2o1.CCCCCCCCS(=O)(=O)[N-]c1ccccc1-c1nc2ccccc2o1.[Zn+2] [Compound 6a, zinc bis-2-(2-(n-octylsulfonamido)phenyl)benzoxazolate]	–	◯	◯	◯	◯	◯	◯	Δ	X
c1cnc2c([O][Al]([O]c3cccc4cccnc34)[O]c3cccc4cccnc34)cccc2c1 [Alq3, aluminum-8-hydroxyquinoline complex]	–	Δ	X	X	X	X	X	X	X
CS(=O)(=O)[N-]c1cccc2cccnc12.CS(=O)(=O)[N-]c1cccc2cccnc12.[Zn+2] [Compound M, Zinc bis-8-(methylsulfonamido)quinolinate]	505 nm	Δ	X	X	X	X	X	X	X
